The values that follow come from EP0002933A1, “Method for assessing cancerous malignancy or benignity and diagnostic pack for use therein” (Gosalvez, Mario Gosalvez, priority 1977, dated 1979).

The subject of assay [1] is pyruvate kinase. The experiment in a line: ATP inhibition of pyruvate kinase in cell homogenates (compound optical assay, NADH at 340 mµ). The class given is biochemical. The text has this:
(§1) In more detail, the theoretical basis of this new method is as follows. -The step-wise degradation of glucose to pyruvic acid, according to the well-known Embden-Myerhof pathway, includes the reaction: [drawing 3] wherein ADP and ATP are, respectively, adenosine diphosphate and adenosine triphosphate. In healthy cells this reaction is suppressed by ATP inhibition of the enzyme pyruvate kinase. I have discovered, as previously noted, that in cancerous cells the reaction proceeds in greater or less degree, correlative to the degree of malignancy, in proportion to the extent to which ATP fails to inhibit pyruvate kinase activity. A preferred assay, therefore, involves assessment of the progress of the foregoing reaction in the presence of various levels of ATP calculated to reveal the extent, if any, by which sample-derived pyruvate kinase activity is inhibited by ATP. The extent of such inhibition can be characterised on a percentage scale relative to the foregoing reaction, taking 0% as no inhibition, 100% as total inhibition, and "maximum percent inhibition of pyruvate kinase activity" as that point on the scale beyond which addition of further ATP essentially fails to affect further the progress of the reaction.
(§2) An especially preferred method of following the reaction spectrophotometrically involves compound optical assay, in which the influence of the reaction under study on a secondary reaction with an observable end product is followed. See Felu, FEBS Letters 50, 334 (1975) and Bucher, T. et al., in : Methods in Enzymology, Vol. I (S.P. Colowick and N.O. Kaplan, eds.) Academic Press, N.Y. p. 435. Thus, in the compound reaction: [drawing 4] pyruvate kinase activity can be monitored by observing the rate of disappearance of the band (at 340 m µ) of the hydrogen donor NADH (nicotinamide adenine dinucleotide, reduced form). Successive repetitions of the assay with differing amounts of added ATP establish the point beyond which ATP addition fails to influence the rate of disappearance of the hydrogen donor.
Samples for assay may be obtained as whole tissue (e.g., of volume 1-10 mm^3) in the case of suspected tumours, by intraoperatorybiopsy or needle biopsy. In the case of suspected blood malignancies, the collection of white blood cells by differential centrifugation is sufficient. Samples are preserved on ice pending the preparation of homogenates suitable for assay. Homogenisation frees cell-contained pyruvate kinase for assay and involves cell disruption by conventional techniques which avoid, to a useful degree, the destruction of nuclei, mitochondria and other cell particulates. Typically, the sample may be placed in a hand homogeniser which is supplied with the assay kit, in buffered isotonic solution, and homogenised with several strokes of a pestle. From, e.g., 0.1 to 1 ml of buffered solution, depending on the size of the sample, is preferably employed. As one of many appropriate buffers may be mentioned a solution comprising 50 mM Tris-HC1, pH 7.0, 0.1 mM EDTA and 0.5 mM dithioerythritol. In the preferred embodiment of the invention the homogenate is next centrifuged, for example at about 5,000-10,000 rpm in a conical centrifuge tube for 10 minutes, and the supernatant is dialysed against water (e.g., for 2 hours at about 2-4°C.). The contents of the dialysis bag are then transferred to a tube immersed in ice. In the case of large samples, the centrifugation and dialysis steps may be omitted, as will be appreciated by the art-skilled. Preferably, however, a dialysis bag is supplied with the kit. As used herein, the term "homogenate" refers to a free enzyme-containing product of homogenisation, whether or not accompanied by other cellular debris. […]

Assay [2] deals with pyruvate kinase. The assay is described as above. The class given is biochemical, Mouse.
Text: as §1, §2
Samples for assay may be obtained as whole tissue (e.g., of volume 1-10 mm^3) in the case of suspected tumours, by intraoperatorybiopsy or needle biopsy. In the case of suspected blood malignancies, the collection of white blood cells by differential centrifugation is sufficient. Samples are preserved on ice pending the preparation of homogenates suitable for assay. Homogenisation frees cell-contained pyruvate kinase for assay and involves cell disruption by conventional techniques which avoid, to a useful degree, the destruction of nuclei, mitochondria and other cell particulates. Typically, the sample may be placed in a hand homogeniser which is supplied with the assay kit, in buffered isotonic solution, and homogenised with several strokes of a pestle. […]

For `Nc1ncnc2c1ncn2[C@@H]1O[C@H](COP(=O)(O)OP(=O)(O)OP(=O)(O)O)[C@@H](O)[C@H]1O` [ATP, adenosine triphosphate], the “MAXIMUM % INHIBITION OF PYRUVATE KINASE BY ATP” value with pyruvate kinase [1] (Acute lympho-blastic leukaemia, Human, Moderately malign) is on record as 32%; in the assay on pyruvate kinase [1] (Cerebral ependonoma, Human, Benign), 40%; with pyruvate kinase [1] (Glioma, Human, Malign), 15%; with pyruvate kinase [1] (Mammary carcinoma, Human, Malign) it was 17%; in the assay on pyruvate kinase [1] (Mammary fibro-adenoma, Rat, Very benign), 49%; with pyruvate kinase [1] (Multiform glioma, Human, Very malign), 4%. The “MAXIMUM % INHIBITION OF PYRUVATE KINASE BY ATP” value in the assay with pyruvate kinase [1] (Normal liver, Human, No cell growth) worked out at 99%; in the assay on pyruvate kinase [1] (Normal tissue, Rat, No cell growth), 99%; in the assay with pyruvate kinase [1] (Ovarian carcinoma, Human, Malign), 10%; in the assay on pyruvate kinase [1] (Walter Carcino-sarcoma, Rat, Malign) it was 22%; in the assay on pyruvate kinase [2] (Erhlich ascites (Paris strain), Mouse, Very high growth rate), 4%; in the assay with pyruvate kinase [2] (Erhlich ascites tumour (Rome Strain), Mouse, Slow growth rate), 39%. Besides, the “MAXIMUM % INHIBITION OF PYRUVATE KINASE BY ATP” value was 16% in the assay with pyruvate kinase [2] (Leukaemia 1210, Mouse, Very malign) and 25% in the assay on pyruvate kinase [2] (Leukaemia P-P388, Mouse, Malign).
